Measurements: patent publication US7045532B2 (Millennium Pharmaceuticals, Inc., priority 1999, dated 2006)

Biological target: T1, ACE (Sigma, A2580) (Sus scrofa, UniProt F1RRW5)
T1 construct: ACE from porcine kidney; purchased Sigma A2580; host or cells: porcine kidney
T1 sequence (F1RRW5 34-1309): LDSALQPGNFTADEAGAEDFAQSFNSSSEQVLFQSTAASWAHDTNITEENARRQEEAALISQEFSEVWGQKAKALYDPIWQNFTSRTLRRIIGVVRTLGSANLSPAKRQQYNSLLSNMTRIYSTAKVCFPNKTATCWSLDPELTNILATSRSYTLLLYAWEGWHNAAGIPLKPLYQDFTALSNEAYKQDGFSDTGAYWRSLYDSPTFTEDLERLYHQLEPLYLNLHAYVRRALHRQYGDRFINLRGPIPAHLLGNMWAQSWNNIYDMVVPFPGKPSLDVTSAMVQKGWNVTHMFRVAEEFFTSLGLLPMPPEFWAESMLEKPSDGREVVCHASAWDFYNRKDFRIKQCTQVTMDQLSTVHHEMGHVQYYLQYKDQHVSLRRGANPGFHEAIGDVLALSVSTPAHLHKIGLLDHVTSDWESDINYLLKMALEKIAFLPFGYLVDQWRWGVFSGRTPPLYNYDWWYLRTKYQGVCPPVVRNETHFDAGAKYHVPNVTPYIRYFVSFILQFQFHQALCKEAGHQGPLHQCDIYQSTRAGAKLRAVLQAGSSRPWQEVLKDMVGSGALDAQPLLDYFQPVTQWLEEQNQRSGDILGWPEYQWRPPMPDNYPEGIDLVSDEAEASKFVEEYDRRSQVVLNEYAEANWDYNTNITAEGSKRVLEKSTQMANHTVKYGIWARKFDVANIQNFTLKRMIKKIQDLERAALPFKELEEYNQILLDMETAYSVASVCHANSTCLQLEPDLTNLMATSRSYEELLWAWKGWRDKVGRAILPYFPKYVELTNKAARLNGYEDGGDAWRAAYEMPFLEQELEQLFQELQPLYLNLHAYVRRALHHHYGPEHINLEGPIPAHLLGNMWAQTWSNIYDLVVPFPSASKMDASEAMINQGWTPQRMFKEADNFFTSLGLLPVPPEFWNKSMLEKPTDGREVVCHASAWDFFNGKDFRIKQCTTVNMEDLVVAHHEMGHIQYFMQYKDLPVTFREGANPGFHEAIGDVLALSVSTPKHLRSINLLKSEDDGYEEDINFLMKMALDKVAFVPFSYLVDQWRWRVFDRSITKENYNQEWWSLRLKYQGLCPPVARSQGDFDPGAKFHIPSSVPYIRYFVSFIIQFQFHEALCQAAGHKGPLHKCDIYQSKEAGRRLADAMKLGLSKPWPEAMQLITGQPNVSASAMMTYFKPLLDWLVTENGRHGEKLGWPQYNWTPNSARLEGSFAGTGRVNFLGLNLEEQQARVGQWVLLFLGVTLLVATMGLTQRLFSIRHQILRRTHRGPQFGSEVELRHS
Assay: ACE enzymatic activity assay
Assay type: biochemical, porcine
Details: Ki class; compounds tested in 5% DMSO, 12 compound concentrations
Method in brief: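 ACE (1 nM final) in 50 mM HEPES, 300 mM NaCl, 0.01% Brij-35, pH 7.5, with compound in 5% DMSO at 12 concentrations, 25 °C. Substrate cleavage run ~30 min, stopped with EDTA; fluorescence read at excitation 320 nm, emission 405 nm.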

CC(C)CC(N[C@@H](Cc1cncn1Cc1cc(Cl)cc(Cl)c1)C(=O)O)C(=O)O (single isomer, unassigned) [HE, 2-[1-Carboxy-2-[3-(3,5-dichloro-benzyl)-3H-imidazol-4-yl]-ethylamino)4-methyl-pentanoic acid]
Ki: 10 to 50 µM
